Reference: patent US10856562B2, “Flavor composition and edible compositions containing same” (MARS, INCORPORATED, priority 2013, dated 2020)
Square brackets hold non-standard residues; d marks the D form. Ends that are not written are not given here. pGlu = O=C1CC[C@@H](C(=O)O)N1

Tested on: panelists
Assay: Attribute perception scores of flavor enhancers in solution (Example 6)
Assay type: in vivo, human
Design: key to Metallic / Numbing / Atringent / Salt / Sweet / Sour / Bitter / Umami / Sour, mean evaluation score in solution / Numbing, mean evaluation score in solution / Astringent / Umami FF: 15-point intensity scale, 0 = none, 15 = very strong
Details: for Mineral/Flinty aromatic in solution as the concentration increases / Salt perception level in solution as the concentration increases / Umami aromatic in solution as the concentration increases / Umami feeling factor in solution as the concentration increases: 1.0 to 100 ppb; for Astringent / Bitter / Flinty/Mineral / Metallic / Numbing / Salt / Sour / Sweet / Umami / Umami FF / Atringent / Mineral/Flinty / Umami/brothy: solution
Method: Descriptive attributes (e.g., taste, flavor and chemical feeling factors) of three use levels of pGlu-Cys (FE-35), pGlu-Cys-Gly (FE-36), pGlu-Cys-Cys (FE-37), pGlu-Cys-Val (FE-38) and pGlu-Val-Cys (UE-30) flavor composition peptides were determined. The three use levels were as follows: 1.0 ppb, 10.0 ppb and 100.0 ppb.
Data was collected for the attributes of the product in-mouth for the use levels according to the following protocol: • The samples were analyzed for flavor by six to nine members of a panel, trained and experienced in flavor evaluation using the Spectrum™ method. Samples were evaluated across multiple panel sessions. • The strength of each attribute was rated on a 15-point scale, where 0=none and 15=very strong. • This scale incorporates the ability to use tenths of a point and therefore has the potential of 150 scale differentiations. • The scale may be expanded beyond 15 points to include extreme ratings if necessary.
A summary of the concentrations of NaCl, water and flavor composition peptides in the solution samples is described in table 24.
The panelists evaluated each sample for the attributes described by table 25.

[1] = 10.0 ppb, mean evaluation score
[2] = 100.0 ppb, mean evaluation score
[3] = Concentration 1, MAX, 15-point scale
[4] = Concentration 1, MEAN, 15-point scale
[5] = Concentration 1, MIN, 15-point scale
[6] = Concentration 10, MAX, 15-point scale
[7] = Concentration 10, MEAN, 15-point scale
[8] = Concentration 10, MIN, 15-point scale
[9] = Concentration 100, MAX, 15-point scale
[10] = Concentration 100, MEAN, 15-point scale
[11] = Concentration 100, MIN, 15-point scale
[12] = 1.0 ppb in solution (NaCl, water), 15-point scale
[13] = 10.0 ppb in solution (NaCl, water), 15-point scale
[14] = 100.0 ppb in solution (NaCl, water), 15-point scale

For [pGlu]-Cys-Val [FE-38], the “Mineral/Flinty aromatic in solution as the concentration increases” value was “increases very slightly”, the “Salt perception level in solution as the concentration increases” value was “increase very slightly in-mouth at 10 ppb” and the “Umami aromatic in solution as the concentration increases” value was “increase very slightly in-mouth at 10 ppb”. The “Umami feeling factor in solution as the concentration increases” value was “shows no distinct pattern”, the “Mineral/Flinty aromatic in solution as the concentration increases” value (listed as FE 38) was “increase very slightly” and the “Salt perception level in solution as the concentration increases” value (listed as FE 38) was “increase very slightly”. For the same substance, the “Umami aromatic in solution as the concentration increases” value (listed as FE 38) was “increase very slightly”, the Astringent (1.0 ppb, mean evaluation score) was 0.0 and the Bitter (1.0 ppb, mean evaluation score) was 0.0. For the same substance, the Flinty/Mineral (1.0 ppb, mean evaluation score) was 1.0, the Metallic (1.0 ppb, mean evaluation score) was 0.0 and the Numbing (1.0 ppb, mean evaluation score) was 0.0. For the same substance, the Salt (1.0 ppb, mean evaluation score) was 3.1, the Sour (1.0 ppb, mean evaluation score) was 0.0 and the Sweet (1.0 ppb, mean evaluation score) was 0.0. For the same substance, the Umami (1.0 ppb, mean evaluation score) was 0.2, the “Umami FF” value (1.0 ppb, mean evaluation score) was 0.7 and the Astringent [1] was 0.0. The Bitter [1] was 0.2, the Flinty/Mineral [1] was 1.1 and the Metallic [1] was 0.0. For the same substance, the Numbing [1] was 0.0, the Salt [1] was 3.7 and the Sour [1] was 0.0. The Sweet [1] was 0.2, the Umami [1] was 0.5 and the “Umami FF” value [1] was 1.8. It also gave an Astringent [2] of 0.0, a Bitter [2] of 0.2 and a Flinty/Mineral [2] of 1.3. It also gave a Metallic [2] of 0.0, a Numbing [2] of 0.0 and a Salt [2] of 3.7. It also gave a Sour [2] of 0.0, a Sweet [2] of 0.2 and a Umami [2] of 0.5. The “Umami FF” value [2] was 1.7, the Atringent [3] was 0.0 and the Bitter [3] was 0.0. It also gave a Metallic [3] of 0.0, a Mineral/Flinty [3] of 1.5 and a Numbing [3] of 0.0. The Salt [3] was 3.5, the Sour [3] was 0.0 and the Sweet [3] was 0.0. For the same substance, the Umami [3] was 1.0, the Umami/brothy [3] was 1.0 and the Atringent [4] was 0.0. For the same substance, the Bitter [4] was 0.0, the Metallic [4] was 0.0 and the Mineral/Flinty [4] was 1.0. It also gave a Numbing [4] of 0.0, a Salt [4] of 3.1 and a Sour [4] of 0.0. For the same substance, the Sweet [4] was 0.0, the Umami [4] was 0.7 and the Umami/brothy [4] was 0.2. The Atringent [5] was 0.0, the Bitter [5] was 0.0 and the Metallic [5] was 0.0. The Mineral/Flinty [5] was 0.5, the Numbing [5] was 0.0 and the Salt [5] was 2.8. It also gave a Sour [5] of 0.0, a Sweet [5] of 0.0 and a Umami [5] of 0.0. The Umami/brothy [5] was 0.0, the Atringent [6] was 0.0 and the Bitter [6] was 0.8. For the same substance, the Metallic [6] was 0.0, the Mineral/Flinty [6] was 1.5 and the Numbing [6] was 0.0. For the same substance, the Salt [6] was 4.0, the Sour [6] was 0.0 and the Sweet [6] was 1.0. For the same substance, the Umami [6] was 3.0, the Umami/brothy [6] was 1.0 and the Atringent [7] was 0.0. It also gave a Bitter [7] of 0.2, a Metallic [7] of 0.0 and a Mineral/Flinty [7] of 1.1. The Numbing [7] was 0.0, the Salt [7] was 3.7 and the Sour [7] was 0.0. It also gave a Sweet [7] of 0.2, a Umami [7] of 1.8 and a Umami/brothy [7] of 0.5. The Atringent [8] was 0.0, the Bitter [8] was 0.0 and the Metallic [8] was 0.0. It also gave a Mineral/Flinty [8] of 0.8, a Numbing [8] of 0.0 and a Salt [8] of 3.0. It also gave a Sour [8] of 0.0, a Sweet [8] of 0.0 and a Umami [8] of 0.0. For the same substance, the Umami/brothy [8] was 0.0, the Atringent [9] was 0.0 and the Bitter [9] was 0.8. It also gave a Metallic [9] of 0.0, a Mineral/Flinty [9] of 1.5 and a Numbing [9] of 0.0. The Salt [9] was 4.0, the Sour [9] was 0.0 and the Sweet [9] was 1.0. The Umami [9] was 3.8, the Umami/brothy [9] was 1.0 and the Atringent [10] was 0.0. The Bitter [10] was 0.2, the Metallic [10] was 0.0 and the Mineral/Flinty [10] was 1.3. It also gave a Numbing [10] of 0.0, a Salt [10] of 3.7 and a Sour [10] of 0.0. It also gave a Sweet [10] of 0.2, a Umami [10] of 1.7 and a Umami/brothy [10] of 0.5. The Atringent [11] was 0.0, the Bitter [11] was 0.0 and the Metallic [11] was 0.0. It also gave a Mineral/Flinty [11] of 0.8, a Numbing [11] of 0.0 and a Salt [11] of 3.5. It also gave a Sour [11] of 0.0, a Sweet [11] of 0.0 and a Umami [11] of 0.5. For the same substance, the Umami/brothy [11] was 0.0.

For [pGlu]-Val-Cys [UE-30], the “Astringent, mean evaluation score in solution” value (“Astringent … in solution” below) [12] was 0.0, the “Bitter, mean evaluation score in solution” value (from here on “Bitter … in solution”) [12] was 0.0 and the “Flinty/Mineral, mean evaluation score in solution” value (shortened to “Flinty/Mineral … in solution”) [12] was 0.4. For the same substance, the “Metallic, mean evaluation score in solution” value (“Metallic … in solution” below) [12] was 0.0, the “Numbing, mean evaluation score in solution” value (“Numbing … in solution” below) [12] was 0.0 and the “Salt, mean evaluation score in solution” value [12] was 1.2. For the same substance, the “Sour, mean evaluation score in solution” value [12] was 0.0, the “Sweet, mean evaluation score in solution” value [12] was 0.0 and the “Umami FF, mean evaluation score in solution” value (shortened to “Umami FF … in solution”) [12] was 0.1. For the same substance, the “Umami, mean evaluation score in solution” value [12] was 0.0, the “Mineral/Flinty aromatic in solution as the concentration increases” value was “increases” and the “Salt perception level in solution as the concentration increases” value was “increases slightly”. For the same substance, the “Umami aromatic in solution as the concentration increases” value was “shows no distinct pattern”, the “Umami feeling factor in solution as the concentration increases” value was “increases” and the “Mineral/Flinty aromatic in solution as the concentration increases” value (listed as UE 30) was “increase slightly”. The “Salt perception level in solution as the concentration increases” value (listed as UE 30) was “increase slightly”, the “Astringent … in solution” value [13] was 0.0 and the “Bitter … in solution” value [13] was 0.0. For the same substance, the “Flinty/Mineral … in solution” value [13] was 0.8, the “Metallic … in solution” value [13] was 0.0 and the “Numbing … in solution” value [13] was 0.0. The “Salt, mean evaluation score in solution” value [13] was 1.5, the “Sour, mean evaluation score in solution” value [13] was 0.0 and the “Sweet, mean evaluation score in solution” value [13] was 0.0. For the same substance, the “Umami FF … in solution” value [13] was 0.6, the “Umami, mean evaluation score in solution” value [13] was 0.4 and the “Astringent … in solution” value [14] was 0.0. For the same substance, the “Bitter … in solution” value [14] was 0.7, the “Flinty/Mineral … in solution” value [14] was 1.1 and the “Metallic … in solution” value [14] was 0.0. For the same substance, the “Numbing … in solution” value [14] was 0.0, the “Salt, mean evaluation score in solution” value [14] was 1.8 and the “Sour, mean evaluation score in solution” value [14] was 0.0. For the same substance, the “Sweet, mean evaluation score in solution” value [14] was 0.0, the “Umami FF … in solution” value [14] was 2.1 and the “Umami, mean evaluation score in solution” value [14] was 0.1. For the same substance, the Atringent [3] was 0.0, the Bitter [3] was 0.0 and the Metallic [3] was 0.0. The Mineral/Flinty [3] was 0.5, the Numbing [3] was 0.0 and the Salt [3] was 1.5. The Sour [3] was 0.0, the Sweet [3] was 0.0 and the Umami [3] was 0.5. The Umami/brothy [3] was 0.0, the Atringent [4] was 0.0 and the Bitter [4] was 0.0. It also gave a Metallic [4] of 0.0, a Mineral/Flinty [4] of 0.4 and a Numbing [4] of 0.0. The Salt [4] was 1.2, the Sour [4] was 0.0 and the Sweet [4] was 0.0. For the same substance, the Umami [4] was 0.1, the Umami/brothy [4] was 0.0 and the Atringent [5] was 0.0. It also gave a Bitter [5] of 0.0, a Metallic [5] of 0.0 and a Mineral/Flinty [5] of 0.0. It also gave a Numbing [5] of 0.0, a Salt [5] of 1.0 and a Sour [5] of 0.0. The Sweet [5] was 0.0, the Umami [5] was 0.0 and the Umami/brothy [5] was 0.0. For the same substance, the Atringent [6] was 0.0, the Bitter [6] was 0.0 and the Metallic [6] was 0.0. The Mineral/Flinty [6] was 1.0, the Numbing [6] was 0.0 and the Salt [6] was 2.0. The Sour [6] was 0.0, the Sweet [6] was 0.0 and the Umami [6] was 1.0. It also gave a Umami/brothy [6] of 0.8, an Atringent [7] of 0.0 and a Bitter [7] of 0.0. It also gave a Metallic [7] of 0.0, a Mineral/Flinty [7] of 0.8 and a Numbing [7] of 0.0. It also gave a Salt [7] of 1.5, a Sour [7] of 0.0 and a Sweet [7] of 0.0. For the same substance, the Umami [7] was 0.6, the Umami/brothy [7] was 0.4 and the Atringent [8] was 0.0. It also gave a Bitter [8] of 0.0, a Metallic [8] of 0.0 and a Mineral/Flinty [8] of 0.0. The Numbing [8] was 0.0, the Salt [8] was 1.0 and the Sour [8] was 0.0. It also gave a Sweet [8] of 0.0, a Umami [8] of 0.0 and a Umami/brothy [8] of 0.0. The Atringent [9] was 0.0, the Bitter [9] was 1.5 and the Metallic [9] was 0.0. The Mineral/Flinty [9] was 1.5, the Numbing [9] was 0.0 and the Salt [9] was 2.0. It also gave a Sour [9] of 0.0, a Sweet [9] of 0.0 and a Umami [9] of 3.0. The Umami/brothy [9] was 0.5, the Atringent [10] was 0.0 and the Bitter [10] was 0.7. It also gave a Metallic [10] of 0.0, a Mineral/Flinty [10] of 1.1 and a Numbing [10] of 0.0. The Salt [10] was 1.8, the Sour [10] was 0.0 and the Sweet [10] was 0.0. The Umami [10] was 2.1, the Umami/brothy [10] was 0.1 and the Atringent [11] was 0.0. For the same substance, the Bitter [11] was 0.0, the Metallic [11] was 0.0 and the Mineral/Flinty [11] was 0.8. The Numbing [11] was 0.0, the Salt [11] was 1.0 and the Sour [11] was 0.0. The Sweet [11] was 0.0, the Umami [11] was 1.5 and the Umami/brothy [11] was 0.0.
